Measured values taken from patent US7118895B2, “Process for producing aglycon by using diglycosidase and flavor-improved food containing the aglycon and converting agent to be used in the process” (Amano Enzyme Inc., priority 2000, dated 2006).

How the values were obtained:
[1] = test system: β-Glucosidase derived from almond; assay: Reactivity toward various isoflavone glycosides (HPLC); type: biochemical; set-up: unit not given here; settings: 55 °C, pH 4.0
Method: (§1) Diglycosidase was diluted with an acetate buffer of pH 4.0 to prepare a 0.75 AU/mL enzyme solution. As references, a similar operation was conducted using β-glucosidase (manufactured by Fluka) derived from Aspergillus niger, β-glucosidase (manufactured by Sigma) derived from almond, β-xylosidase derived from pectinase G (manufactured by Amano Enzyme Inc.). Each of purified products of isoflavone glycosides (glycitin, acetylglycitin, malonylglycitin, daidzin, acetyldaidzin, malonyldaidzin, genistin, acetylgenistin, malonylgenistin, all manufactured by Nacalai Tesque, Inc.) was dissolved in methanol to prepare each 2 mM substrate solution. The reaction was carried out by mixing 10 μL of a substrate solution, 200 μL of 20 mM acetate buffer (pH 4.0), and 40 μL of each purified enzyme solution at a total liquid volume of 250 μL. The reaction was carried out at 55° C. and isolation of an aglycon isoflavone from an isoflavone glycoside in the reaction mixture was detected by HLPC at 0, 1, 3, and 6 hours of the reaction.
(§2) To the reaction mixture was added 700 μL of ethanol, followed by stirring and ultrasonication. After centrifugation at 15,000 rpm and 4° C. for 10 minutes, the supernatant was filtered through a filter and then the filtrate was applied to HPLC.
(§3) The isoflavone glycoside and aglycon isoflavone contained in the filtrate was separated and detected by a high performance liquid chromatography (HPLC, Shimadzu CLASS LC-10 system) using TOSOH TSK gel ODS-80TM column (manufactured by Tosoh Corporation). […] The absorbance at 260 nm was detected by a UV detector (Shimadzu, SPD-10AV). Using purified products (manufactured by Nacalai Tesque, Inc.) of the above isoflavone glycosides and aglycon isoflavones, the isoflavone glycoside and aglycon isoflavone were quantitatively determined according to a calibration curve method. By the way, unless otherwise stated, the measuring conditions of HPLC herein mean those described in the example.

[2] = test system: β-Xylosidase derived from pectinase G; assay: as above; type: biochemical; set-up: unit not given here; settings: 55 °C, pH 4.0
Method: as §1, §2, §3

Crude diglycosidase = assay: Examination of substrate concentration in the conversion into isoflavone aglycons by diglycosidase using soybean materials; type: biochemical, Penicillium multicolor IAM7153;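 for Decomposition efficiency: ratio of each glycoside/aglycon within its isoflavone family: percent of the isoflavone family total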
Procedure, shortened: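 Soybean materials (roasted soy flour, soymilk, defatted soybean, concentrated soy protein) at 2–30% (w/v) in 20 mM acetate pH 4.0 were reacted with crude diglycosidase at 55° C with shaking; enzyme solution added was 1.88 AU/mL. Samples taken at 0, 1, 3 and 6 h were ethanol-extracted and analyzed by HPLC.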

O=C(O)CC(=O)OC[C@H]1O[C@@H](Oc2ccc3c(=O)c(-c4ccc(O)cc4)coc3c2)[C@H](O)[C@@H](O)[C@@H]1O [malonyldaidzin, 6″-O-malonyldaidzin]
aglycon ([1]; Reaction time 0 h): 0
glucoside ([1]; Reaction time 0 h): 100
aglycon ([1]; Reaction time 1 h): 0
glucoside ([1]; Reaction time 1 h): 100
aglycon ([1]; Reaction time 3 h): 0
glucoside ([1]; Reaction time 3 h): 100
aglycon ([1]; Reaction time 6 h): 0
glucoside ([1]; Reaction time 6 h): 100
aglycon ([2]; Reaction time 0 h): 0
glucoside ([2]; Reaction time 0 h): 100
aglycon ([2]; Reaction time 1 h): 0.4
glucoside ([2]; Reaction time 1 h): 99.6
aglycon ([2]; Reaction time 3 h): 1.6
glucoside ([2]; Reaction time 3 h): 98.4
aglycon ([2]; Reaction time 6 h): 3.3
glucoside ([2]; Reaction time 6 h): 96.7
Decomposition efficiency: ratio of each glycoside/aglycon within its isoflavone family (Crude diglycosidase; roasted soy flour, substrate concentration 2%, heat treatment of enzyme no, reaction time 0 h): not detected
Decomposition efficiency: ratio of each glycoside/aglycon within its isoflavone family (Crude diglycosidase; roasted soy flour, substrate concentration 2%, heat treatment of enzyme no, reaction time 1 h): not detected
Decomposition efficiency: ratio of each glycoside/aglycon within its isoflavone family (Crude diglycosidase; roasted soy flour, substrate concentration 2%, heat treatment of enzyme no, reaction time 3 h): not detected
Decomposition efficiency: ratio of each glycoside/aglycon within its isoflavone family (Crude diglycosidase; roasted soy flour, substrate concentration 2%, heat treatment of enzyme no, reaction time 6 h): not detected
Decomposition efficiency: ratio of each glycoside/aglycon within its isoflavone family (Crude diglycosidase; roasted soy flour, substrate concentration 2%, heat treatment of enzyme yes, reaction time 6 h): not detected
Decomposition efficiency: ratio of each glycoside/aglycon within its isoflavone family (Crude diglycosidase; roasted soy flour, substrate concentration 5%, heat treatment of enzyme no, reaction time 0 h): not detected
Decomposition efficiency: ratio of each glycoside/aglycon within its isoflavone family (Crude diglycosidase; roasted soy flour, substrate concentration 5%, heat treatment of enzyme no, reaction time 1 h): not detected
Decomposition efficiency: ratio of each glycoside/aglycon within its isoflavone family (Crude diglycosidase; roasted soy flour, substrate concentration 5%, heat treatment of enzyme no, reaction time 3 h): not detected
Decomposition efficiency: ratio of each glycoside/aglycon within its isoflavone family (Crude diglycosidase; roasted soy flour, substrate concentration 5%, heat treatment of enzyme no, reaction time 6 h): not detected
Decomposition efficiency: ratio of each glycoside/aglycon within its isoflavone family (Crude diglycosidase; roasted soy flour, substrate concentration 5%, heat treatment of enzyme yes, reaction time 6 h): not detected
Decomposition efficiency: ratio of each glycoside/aglycon within its isoflavone family (Crude diglycosidase; roasted soy flour, substrate concentration 10%, heat treatment of enzyme no, reaction time 0 h): not detected
Decomposition efficiency: ratio of each glycoside/aglycon within its isoflavone family (Crude diglycosidase; roasted soy flour, substrate concentration 10%, heat treatment of enzyme no, reaction time 1 h): not detected
Decomposition efficiency: ratio of each glycoside/aglycon within its isoflavone family (Crude diglycosidase; roasted soy flour, substrate concentration 10%, heat treatment of enzyme no, reaction time 3 h): not detected
Decomposition efficiency: ratio of each glycoside/aglycon within its isoflavone family (Crude diglycosidase; roasted soy flour, substrate concentration 10%, heat treatment of enzyme no, reaction time 6 h): not detected
Decomposition efficiency: ratio of each glycoside/aglycon within its isoflavone family (Crude diglycosidase; roasted soy flour, substrate concentration 10%, heat treatment of enzyme yes, reaction time 6 h): not detected
Decomposition efficiency: ratio of each glycoside/aglycon within its isoflavone family (Crude diglycosidase; roasted soy flour, substrate concentration 20%, heat treatment of enzyme no, reaction time 0 h): not detected
Decomposition efficiency: ratio of each glycoside/aglycon within its isoflavone family (Crude diglycosidase; roasted soy flour, substrate concentration 20%, heat treatment of enzyme no, reaction time 1 h): not detected
Decomposition efficiency: ratio of each glycoside/aglycon within its isoflavone family (Crude diglycosidase; roasted soy flour, substrate concentration 20%, heat treatment of enzyme no, reaction time 3 h): not detected
Decomposition efficiency: ratio of each glycoside/aglycon within its isoflavone family (Crude diglycosidase; roasted soy flour, substrate concentration 20%, heat treatment of enzyme no, reaction time 6 h): not detected
Decomposition efficiency: ratio of each glycoside/aglycon within its isoflavone family (Crude diglycosidase; roasted soy flour, substrate concentration 20%, heat treatment of enzyme yes, reaction time 6 h): not detected
Decomposition efficiency: ratio of each glycoside/aglycon within its isoflavone family (Crude diglycosidase; roasted soy flour, substrate concentration 30%, heat treatment of enzyme no, reaction time 0 h): not detected
Decomposition efficiency: ratio of each glycoside/aglycon within its isoflavone family (Crude diglycosidase; roasted soy flour, substrate concentration 30%, heat treatment of enzyme no, reaction time 1 h): not detected
Decomposition efficiency: ratio of each glycoside/aglycon within its isoflavone family (Crude diglycosidase; roasted soy flour, substrate concentration 30%, heat treatment of enzyme no, reaction time 3 h): not detected
Decomposition efficiency: ratio of each glycoside/aglycon within its isoflavone family (Crude diglycosidase; roasted soy flour, substrate concentration 30%, heat treatment of enzyme no, reaction time 6 h): not detected
Decomposition efficiency: ratio of each glycoside/aglycon within its isoflavone family (Crude diglycosidase; roasted soy flour, substrate concentration 30%, heat treatment of enzyme yes, reaction time 6 h): not detected
Decomposition efficiency: ratio of each glycoside/aglycon within its isoflavone family (Crude diglycosidase; soymilk, substrate concentration 2%, heat treatment of enzyme no, reaction time 0 h): 32.2%
Decomposition efficiency: ratio of each glycoside/aglycon within its isoflavone family (Crude diglycosidase; soymilk, substrate concentration 2%, heat treatment of enzyme no, reaction time 1 h): 27.5%
Decomposition efficiency: ratio of each glycoside/aglycon within its isoflavone family (Crude diglycosidase; soymilk, substrate concentration 2%, heat treatment of enzyme no, reaction time 3 h): 9.9%
Decomposition efficiency: ratio of each glycoside/aglycon within its isoflavone family (Crude diglycosidase; soymilk, substrate concentration 2%, heat treatment of enzyme no, reaction time 6 h): 2.9%
Decomposition efficiency: ratio of each glycoside/aglycon within its isoflavone family (Crude diglycosidase; soymilk, substrate concentration 2%, heat treatment of enzyme yes, reaction time 6 h): 47.0%
Decomposition efficiency: ratio of each glycoside/aglycon within its isoflavone family (Crude diglycosidase; soymilk, substrate concentration 5%, heat treatment of enzyme no, reaction time 0 h): 53.6%
Decomposition efficiency: ratio of each glycoside/aglycon within its isoflavone family (Crude diglycosidase; soymilk, substrate concentration 5%, heat treatment of enzyme no, reaction time 1 h): 34.2%
Decomposition efficiency: ratio of each glycoside/aglycon within its isoflavone family (Crude diglycosidase; soymilk, substrate concentration 5%, heat treatment of enzyme no, reaction time 3 h): 15.9%
Decomposition efficiency: ratio of each glycoside/aglycon within its isoflavone family (Crude diglycosidase; soymilk, substrate concentration 5%, heat treatment of enzyme no, reaction time 6 h): 6.1%
Decomposition efficiency: ratio of each glycoside/aglycon within its isoflavone family (Crude diglycosidase; soymilk, substrate concentration 5%, heat treatment of enzyme yes, reaction time 6 h): 47.6%
Decomposition efficiency: ratio of each glycoside/aglycon within its isoflavone family (Crude diglycosidase; soymilk, substrate concentration 10%, heat treatment of enzyme no, reaction time 0 h): 53.4%
Decomposition efficiency: ratio of each glycoside/aglycon within its isoflavone family (Crude diglycosidase; soymilk, substrate concentration 10%, heat treatment of enzyme no, reaction time 1 h): 37.4%
Decomposition efficiency: ratio of each glycoside/aglycon within its isoflavone family (Crude diglycosidase; soymilk, substrate concentration 10%, heat treatment of enzyme no, reaction time 3 h): 20.5%
Decomposition efficiency: ratio of each glycoside/aglycon within its isoflavone family (Crude diglycosidase; soymilk, substrate concentration 10%, heat treatment of enzyme no, reaction time 6 h): 10.7%
Decomposition efficiency: ratio of each glycoside/aglycon within its isoflavone family (Crude diglycosidase; soymilk, substrate concentration 10%, heat treatment of enzyme yes, reaction time 6 h): 47.8%
Decomposition efficiency: ratio of each glycoside/aglycon within its isoflavone family (Crude diglycosidase; soymilk, substrate concentration 20%, heat treatment of enzyme no, reaction time 0 h): 53.6%
Decomposition efficiency: ratio of each glycoside/aglycon within its isoflavone family (Crude diglycosidase; soymilk, substrate concentration 20%, heat treatment of enzyme no, reaction time 1 h): 41.2%
Decomposition efficiency: ratio of each glycoside/aglycon within its isoflavone family (Crude diglycosidase; soymilk, substrate concentration 20%, heat treatment of enzyme no, reaction time 3 h): 21.5%
Decomposition efficiency: ratio of each glycoside/aglycon within its isoflavone family (Crude diglycosidase; soymilk, substrate concentration 20%, heat treatment of enzyme no, reaction time 6 h): 16.4%
Decomposition efficiency: ratio of each glycoside/aglycon within its isoflavone family (Crude diglycosidase; soymilk, substrate concentration 20%, heat treatment of enzyme yes, reaction time 6 h): 48.1%
Decomposition efficiency: ratio of each glycoside/aglycon within its isoflavone family (Crude diglycosidase; soymilk, substrate concentration 30%, heat treatment of enzyme no, reaction time 0 h): 53.5%
Decomposition efficiency: ratio of each glycoside/aglycon within its isoflavone family (Crude diglycosidase; soymilk, substrate concentration 30%, heat treatment of enzyme no, reaction time 1 h): 43.8%
Decomposition efficiency: ratio of each glycoside/aglycon within its isoflavone family (Crude diglycosidase; soymilk, substrate concentration 30%, heat treatment of enzyme no, reaction time 3 h): 29.7%
Decomposition efficiency: ratio of each glycoside/aglycon within its isoflavone family (Crude diglycosidase; soymilk, substrate concentration 30%, heat treatment of enzyme no, reaction time 6 h): 21.9%
Decomposition efficiency: ratio of each glycoside/aglycon within its isoflavone family (Crude diglycosidase; soymilk, substrate concentration 30%, heat treatment of enzyme yes, reaction time 6 h): 46.9%
Decomposition efficiency of daidzin family in defatted soybean (Crude diglycosidase; substrate concentration 2%, heat treatment of enzyme no, reaction time 0 h): 42.2
Decomposition efficiency of daidzin family in defatted soybean (Crude diglycosidase; substrate concentration 2%, heat treatment of enzyme no, reaction time 1 h): 35.2
Decomposition efficiency of daidzin family in defatted soybean (Crude diglycosidase; substrate concentration 2%, heat treatment of enzyme no, reaction time 3 h): 21.2
Decomposition efficiency of daidzin family in defatted soybean (Crude diglycosidase; substrate concentration 2%, heat treatment of enzyme no, reaction time 6 h): 16.5
Decomposition efficiency of daidzin family in defatted soybean (Crude diglycosidase; substrate concentration 2%, heat treatment of enzyme yes, reaction time 6 h): 38.1
Decomposition efficiency of daidzin family in defatted soybean (Crude diglycosidase; substrate concentration 5%, heat treatment of enzyme no, reaction time 0 h): 41.1
Decomposition efficiency of daidzin family in defatted soybean (Crude diglycosidase; substrate concentration 5%, heat treatment of enzyme no, reaction time 1 h): 37.7
Decomposition efficiency of daidzin family in defatted soybean (Crude diglycosidase; substrate concentration 5%, heat treatment of enzyme no, reaction time 3 h): 30.6
Decomposition efficiency of daidzin family in defatted soybean (Crude diglycosidase; substrate concentration 5%, heat treatment of enzyme no, reaction time 6 h): 21.0
Decomposition efficiency of daidzin family in defatted soybean (Crude diglycosidase; substrate concentration 5%, heat treatment of enzyme yes, reaction time 6 h): 38.1
Decomposition efficiency of daidzin family in defatted soybean (Crude diglycosidase; substrate concentration 10%, heat treatment of enzyme no, reaction time 0 h): 39.7
Decomposition efficiency of daidzin family in defatted soybean (Crude diglycosidase; substrate concentration 10%, heat treatment of enzyme no, reaction time 1 h): 39.5
Decomposition efficiency of daidzin family in defatted soybean (Crude diglycosidase; substrate concentration 10%, heat treatment of enzyme no, reaction time 3 h): 34.2
Decomposition efficiency of daidzin family in defatted soybean (Crude diglycosidase; substrate concentration 10%, heat treatment of enzyme no, reaction time 6 h): 29.0
Decomposition efficiency of daidzin family in defatted soybean (Crude diglycosidase; substrate concentration 10%, heat treatment of enzyme yes, reaction time 6 h): 37.0
